Results published in PubChem BioAssay (NCI).
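Method: 48-hour compound exposure of cells in 96-well plates, five concentrations, linear interpolation of endpoints. GI50: concentration for 50% inhibition of growth. TGI denotes the concentration required for complete inhibition of growth.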

Legend:
Assay in all cases: growth of human tumour cells (NCI), 48 h
NCI-H226 lung = tested on: NCI-H226 lung
NCI/ADR-RES ovarian = tested on: NCI/ADR-RES ovarian
UO-31 renal = tested on: UO-31 renal
COLO 205 colon = tested on: COLO 205 colon
K-562 leukemia = tested on: K-562 leukemia
NCI-H460 lung = tested on: NCI-H460 lung
RXF 393 renal = tested on: RXF 393 renal
LOX IMVI melanoma = tested on: LOX IMVI melanoma
SNB-19 CNS = tested on: SNB-19 CNS
BT-549 breast = tested on: BT-549 breast
SR leukemia = tested on: SR leukemia
A549 NSCLC = tested on: A549 NSCLC
DU-145 prostate = tested on: DU-145 prostate
T-47D breast = tested on: T-47D breast
CAKI-1 renal = tested on: CAKI-1 renal
OVCAR-8 ovarian = tested on: OVCAR-8 ovarian
MOLT-4 leukemia = tested on: MOLT-4 leukemia
OVCAR-3 ovarian = tested on: OVCAR-3 ovarian
HCT-116 colon = tested on: HCT-116 colon
RPMI-8226 leukemia = tested on: RPMI-8226 leukemia
M14 melanoma = tested on: M14 melanoma
HS 578T breast = tested on: HS 578T breast
MDA-MB-231 breast = tested on: MDA-MB-231 breast
HOP-62 NSCLC = tested on: HOP-62 NSCLC
HT29 colon = tested on: HT29 colon
TK-10 renal = tested on: TK-10 renal
CCRF-CEM leukemia = tested on: CCRF-CEM leukemia

SMILES: C[CH2][Pb]([CH2]C)([CH2]C)[O]C(=O)COc1ccccc1
- GI50 (NCI-H226 lung): 1830 nM
- TGI (NCI-H226 lung): 6040 nM
- GI50 (NCI/ADR-RES ovarian): 1970 nM
- TGI (NCI/ADR-RES ovarian): 9240 nM
- GI50 (UO-31 renal): 1050 nM
- TGI (UO-31 renal): 3700 nM
- GI50 (COLO 205 colon): 1960 nM
- TGI (COLO 205 colon): 4510 nM
- GI50 (K-562 leukemia): 1470 nM
- TGI (K-562 leukemia): 6640 nM
- GI50 (NCI-H460 lung): 2210 nM
- TGI (NCI-H460 lung): 5940 nM
- GI50 (RXF 393 renal): 1050 nM
- TGI (RXF 393 renal): 3260 nM
- GI50 (LOX IMVI melanoma): 1400 nM
- TGI (LOX IMVI melanoma): 3220 nM
- GI50 (SNB-19 CNS): 2360 nM
- TGI (SNB-19 CNS): 11300 nM
- GI50 (BT-549 breast): 1780 nM
- TGI (BT-549 breast): 6400 nM
- GI50 (SR leukemia): 595 nM
- TGI (SR leukemia): 3880 nM
- GI50 (A549 NSCLC): 1820 nM
- TGI (A549 NSCLC): 5650 nM
- GI50 (DU-145 prostate): 2430 nM
- TGI (DU-145 prostate): 10700 nM
- GI50 (T-47D breast): 757 nM
- TGI (T-47D breast): 8820 nM
- GI50 (CAKI-1 renal): 1950 nM
- TGI (CAKI-1 renal): 6180 nM
- GI50 (OVCAR-8 ovarian): 1760 nM
- TGI (OVCAR-8 ovarian): 5680 nM
- GI50 (MOLT-4 leukemia): 1950 nM
- TGI (MOLT-4 leukemia): 4630 nM
- GI50 (OVCAR-3 ovarian): 1700 nM
- TGI (OVCAR-3 ovarian): 5270 nM
- GI50 (HCT-116 colon): 1440 nM
- TGI (HCT-116 colon): 2900 nM
- GI50 (RPMI-8226 leukemia): 1030 nM
- TGI (RPMI-8226 leukemia): 3120 nM
- GI50 (M14 melanoma): 1390 nM
- TGI (M14 melanoma): 6670 nM
- GI50 (HS 578T breast): 1530 nM
- TGI (HS 578T breast): 5200 nM
- GI50 (MDA-MB-231 breast): 1630 nM
- TGI (MDA-MB-231 breast): 4840 nM
- GI50 (HOP-62 NSCLC): 1640 nM
- TGI (HOP-62 NSCLC): 3760 nM
- GI50 (HT29 colon): 1740 nM
- TGI (HT29 colon): 4610 nM
- GI50 (TK-10 renal): 1630 nM
- TGI (TK-10 renal): 5210 nM
- GI50 (CCRF-CEM leukemia): 1230 nM
